Where two headings read alike, the source gives them in different places.
How the values were obtained:
[1] = system: coelenterazine autoluminescence in Human embryonic kidney cells (293); experiment: Whole cell assay: reduction of coelenterazine autoluminescence in the presence of living cells; assay type: cell-based
Description: (§1) To determine the effect of organic compounds on cell viability and to determine the ability of such compounds to reduce autoluminescence in the presence of living cells, the following experiment was performed. Human embryonic kidney cells (293, ATCC, Rockville, Md.) were used to generate a cell line that stably expresses the firefly luciferase (Luc+) gene. This stable cell line was made using the pCl-neo vector (Promega Corporation, Madison Wis., USA) and inserting the Luc+ gene between the Xba I and Sal I sites. The stable cell line was prepared using standard methods and the transformed cells were grown in wells of a microtiter plate in the presence of DMEM medium containing 10% FBS and 0.15 mg/ml G418. For experimental purposes, duplicate plates of cells were prepared using 96 well microtiter plates. One plate was used to examine viability, and the other plate was used to examine the effect on autoluminescence.
To determine the ability of the organic compounds to reduce autoluminescence, the media was removed from the cells and replaced with media containing the compounds at various concentrations and coelenterazine. Since there is no Renilla luciferase enzyme being expressed in these cells, the only luminescence observed is autoluminescence. The level of autoluminescence was compared to controls containing only coelenterazine to identify the effect of the compounds on reducing autoluminescence.
(§2) Half of the microtiter plate contained no cells. To these wells, the same reagents were added as to the cell counterpart to measure cell-independent luminescence (i.e. background luminescence). The reagents (media with luciferin or coelenterazine, with or without compounds at various concentrations) were prepared as follows:
b) Reagent to Examine Reduction in Autoluminescence
Coelenterazine substrate was initially dissolved in Stop & Glob Reagent Solvent (both available from Promega Corporation, Madison Wis., USA) as a 30 mM stock. This coelenterazine stock was used to make DMEM media containing 0.6 mM coelenterazine as the final concentration. DMEM/coelenterazine reagents were made in a similar fashion as the DMEM/luciferin reagents described in a).
(§3) The cell culture medium was removed from the cells and replaced with medium containing substrate (+/−compound) and luminescence was measured immediately. […] Fold reduction in autoluminescence was calculated by dividing the background-subtracted autoluminescence in minus compound controls by the background-subtracted autoluminescence containing the compounds.

[2] = system: Human embryonic kidney cells (293) stably expressing firefly luciferase (Luc+); experiment: Whole cell assay: firefly luminescence as indicator of cell viability; assay type: cell-based
Description: as §1
To examine the effect of the organic compounds in cell viability, the media was removed from the cells and replaced with media containing the substrate for firefly luciferase, beetle luciferin, and the organic compounds at various concentrations. Passive diffusion of luciferin across the cell membrane together with the ATP oxygen and luciferase enzyme already contained within the cell, results in light production. Whereas, in compromised or damaged cells, intracellular ATP concentration is rapidly depleted, decreasing the firefly luminescence. The level of luminescence was compared to controls containing only luciferin to identify the effect of the compounds, if any, on light output as an indicator of cell viability.
as §2
a) Reagent to Examine Firefly Luminescence (Cell Viability)
Luciferin substrate available from Promega Corporation, Madison Wis., USA was initially prepared in 10 mM sodium phosphate buffer, pH 7.4 as a 100 mM stock. This luciferin stock was used to make DMEM solution containing a final concentration of 2 mM luciferin.
Thiourea and 1-allyl-3-(2-hydroxyethyl)-2-thiourea were dissolved directly in this solution (DMEM/luciferin) to a final concentration of 30 mM. These were subsequently diluted to contain final compound concentrations of 10 mM and 1 mM.
Another compound 6-aza-thio-thymidine was dissolved in DMSO as a 750 mM stock. The 6-aza-thio-thymidine was subsequently added to the DMEM/luciferin reagent at a final concentration of 30 mM, 10 mM, and 1 mM, while maintaining a final DMSO concentration of 4%. A DMEM/luciferin reagent was used as the control with which to compare the effect of the compound and was also made to contain a final DMSO concentration of 4%.
Since it is believed that DMSO may help organic molecules permeat cell membranes, an additional control was included that consisted of thiourea (10 mM) reconstituted in DMSO (4%).
as §3

[3] = Description: (§4) The enzymatic luminescence measurement may have an autoluminescence component.
(§5) Format A Assays were performed in the presence of Steady Glo® reagent (SG) and Stop & Glo® reagent (S+G), (Promega Corporation, Madison Wis.). A total reaction volume of 150 μl consisted of:
(§6) 50 μl F-12 (Ham) media+1 mg/ml gelatin (with or without enzyme^1)
(§7) 50 μl S+G (containing substrate^2)
(§8) 50 μl SG ^1 Renilla luciferase enzyme was added to F-12 cell culture media containing 1% gelatin, to a concentration of approximately 2.5 ng/50 μl media. Reactions in the absence of Renilla luciferase reveal the effect of the compound on autoluminescence while reactions in the presence of enzyme reveal the effect of the compound on Renilla luciferase-catalyzed luminescence.^2 The S+G reagent was prepared as per manufacturer's instructions, with the exception that for these experiments a S+G solvent three times more concentrated than normal was used to resuspend the S+G substrate.
(§9) The compound to be tested was re-suspended in either SG or S+G reagent to a final concentration of SG or S+G of (1×). The compound was added so the final concentration in the 150 μl total volume would be that listed in Table 1 and the reagent was diluted to the a final of 50 μl with water. For controls, the SG or S+G reagent was brought up to 50 μl with water or with the solvent used to dissolve the compound of interest. For example, if a compound needed to be dissolved in DMSO (dimethyl sulphoxide), an equal volume of DMSO was added to the control reaction. Unless otherwise indicated, the compounds were first dissolved in water.
(§10) For each concentration of a particular compound, a mixture containing all of the components in sufficient amounts for four reactions (i.e. 200 μl media, 200 μl SG, 200 μl S+G) was assembled. From this mixture, 150 μl was dispensed into triplicate wells on a 96-well plate. Alternatively, reactions were sometimes assembled in each well of the plate by adding each of the 50 μl portions and mixing. The plate was incubated at 22° C. and after 5 minutes the luminescence was measured using a Dynex plate luminometer (1 second measurement per well).
(§11) a) fold-decrease in non-enzymatic autoluminescence measurement in the presence of the compound when compared to the absence of the compound and, […]

[4] = remark: listed apart in the source
Description: as §4
(§12) Format B Experiments were performed in a reaction volume of 150 μl Matthew's Buffer (referred to herein as MB) as either a standard MB composition or a modified MB composition as described below. As with Format A, reactions with and without Renilla luciferase were carried out to observe the effect of the organic compounds on assay sensitivity.
(§13) 1× Matthew's buffer standard composition consists of:
(§14) In order to observe the autoluminescence enhanced only by the detergent, for the majority of the experiments, BSA was replaced with porcine gelatin as the enzyme stabilizer at a final concentration of 0.15 mg/ml or 0.45 mg/ml. Taking all the variants into account the format can be sub-divided in 4 different versions:
(§15) Reactions were carried out in triplicate by adding each of the 50 μl portions to microtiter plate wells and mixing. The resulting relative light units generated per well was measured immediately using a Dynex MLX Microtiter plate luminometer or a Wallac 1450 MicroBeta Trilux plate luminometer (1 second/well) or alternatively, the plate was incubated at 22° C. and read after 5 minutes in the same fashion.
as §11

Renilla luciferase [5] = biological target: T1, Renilla luciferase (Renilla reniformis, UniProt P27652)
T1 sequence (P27652 whole entry): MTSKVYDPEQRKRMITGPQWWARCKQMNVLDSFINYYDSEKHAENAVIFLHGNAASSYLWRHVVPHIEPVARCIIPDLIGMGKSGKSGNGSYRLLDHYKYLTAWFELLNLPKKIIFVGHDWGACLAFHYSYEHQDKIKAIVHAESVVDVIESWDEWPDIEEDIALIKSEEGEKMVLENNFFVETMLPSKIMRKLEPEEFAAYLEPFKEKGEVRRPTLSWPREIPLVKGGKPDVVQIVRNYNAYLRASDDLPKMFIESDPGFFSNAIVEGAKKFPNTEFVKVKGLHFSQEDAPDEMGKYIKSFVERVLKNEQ
Description: as §4, §12, §13, §14, §15
(§16) b) effect of the compound on enzymatic luminescence measurement in the presence of the compound when compared to control samples lacking only the compound.

Renilla luciferase [6] = biological target: T1, Renilla luciferase; conditions: Format A
Description: as §4, §5, §6, §7, §8, §9, §10, §16

[7] = 1 mM compound, no additives to media
[8] = 10 mM compound, no additives to media
[9] = 30 mM compound, no additives to media
[10] = 30 mM compound, Format B3 (gelatin, detergent)
[11] = 30 mM compound, Format B4 (gelatin, no detergent)
[12] = 1 mM compound, 4% DMSO in media
[13] = 10 mM compound, 4% DMSO in media
[14] = 30 mM compound, 4% DMSO in media
[15] = 10 mM compound, Format B3 (gelatin, detergent)
[16] = 10 mM compound, Format B4 (gelatin, no detergent)
[17] = 3 mM compound, Format B3 (gelatin, detergent)
[18] = 3 mM compound, Format B3 with Tween-20
[19] = 3 mM compound, Format B4 + 10 mM sodium hydrosulfate
[20] = 100 mM compound, Format B3 (gelatin, detergent)
[21] = 100 mM compound, Format B4 (gelatin, no detergent)

Structure (SMILES): C=CCNC(=S)NCCO [1-Allyl-3-(2-hydroxyethyl)-2-thiourea, 1-allyl-3-(2-hydroxyethyl)-2-thiourea]
- Fold Decrease in Autoluminescence [1, 7]: 3.5 fold
- Fold Decrease in Autoluminescence [1, 8]: 12 fold
- Fold Decrease in Autoluminescence [1, 9]: 35 fold
- Effects on firefly luminescence [2, 7]: No
- Effects on firefly luminescence [2, 8]: Yes, decreases
- Effects on firefly luminescence [2, 9]: Yes, decreases

Structure (SMILES): Cc1c[nH]c(=S)[nH]c1=O [Compound 6]
- Fold decrease autoluminescence ([3]; 32 mM compound, Format A + 17% DMSO): 65 fold
- Fold decrease autoluminescence ([4]; 32 mM compound, Format B3 + 33% DMSO): 660 fold
- Fold decrease autoluminescence ([4]; 32 mM compound, Format B4 + 33% DMSO): 120 fold

Structure (SMILES): CON=C(C(=O)O)c1csc(N)n1 [Compound 7]
- Fold decrease autoluminescence [4, 10]: 7 fold
- Fold decrease autoluminescence [4, 11]: 6.2 fold

Structure (SMILES): Cc1nn([C@H]2C[C@H](O)[C@@H](CO)O2)c(=S)[nH]c1=O [6-aza-thio-thymidine]
- Fold Decrease in Autoluminescence [1, 12]: 3 fold
- Fold Decrease in Autoluminescence [1, 13]: 23 fold
- Fold Decrease in Autoluminescence [1, 14]: 525 fold
- Effects on firefly luminescence [2, 12]: No
- Effects on firefly luminescence [2, 13]: No
- Effects on firefly luminescence [2, 14]: Yes, decreases

Structure (SMILES): NC(N)=[Se] [Compound 2]
- Fold decrease autoluminescence ([3]; 10 mM compound, Format A): 100 fold
- Fold decrease autoluminescence [4, 15]: 70 fold
- Effect on luminescence (Renilla luciferase [5]; [15]): No effect
- Effect on luminescence (Renilla luciferase [6]; 10 mM compound): No effect

Structure (SMILES): NCCS [Compound 8]
- Fold decrease autoluminescence ([3]; 100 mM compound, Format A): 6 fold
- Fold decrease autoluminescence [4, 10]: 20 fold
- Fold decrease autoluminescence [4, 11]: 3.5 fold
- Effect on luminescence (Renilla luciferase [5]; [10]): No effect
- Effect on luminescence (Renilla luciferase [6]; 100 mM compound): No effect

Structure (SMILES): N#C[S-].[K+] [K SCN]
- Fold decrease autoluminescence [4, 15]: 55 fold
- Fold decrease autoluminescence [4, 16]: 1.7 fold
- Effect on luminescence (Renilla luciferase [5]; [15]): No effect

Structure (SMILES): NC(N)=S [Compound 1]
- Fold decrease autoluminescence ([3]; 33 mM compound, Format A): 15 fold
- Fold decrease autoluminescence [4, 17]: 120 fold
- Fold decrease autoluminescence ([4]; 3 mM compound, Format B3 + 10 mM sodium hydrosulfate): 21.6 fold
- Fold decrease autoluminescence [4, 18]: 100 fold
- Fold decrease autoluminescence ([4]; 3 mM compound, Format B3 with Zwittergent): 6 fold
- Fold decrease autoluminescence [4, 19]: 2.6 fold
- Fold decrease autoluminescence [4, 16]: 2 fold
- Fold decrease autoluminescence ([4]; 50 mM compound, Format B3 + 17% DMSO): 500 fold
- Fold decrease autoluminescence ([4]; 50 mM compound, Format B4 + 17% DMSO): 15 fold
- Fold decrease autoluminescence [4, 20]: 290 fold
- Fold decrease autoluminescence [4, 21]: 8.5 fold
- Fold decrease autoluminescence ([4]; 316 mM compound, Format B2 (BSA, no detergent)): 2 fold
- Effect on luminescence (Renilla luciferase [5]; [17]): No effect
- Effect on luminescence (Renilla luciferase [5]; [18]): No effect
- Effect on luminescence (Renilla luciferase [5]; [19]): No effect
- Effect on luminescence (Renilla luciferase [5]; [20]): No effect
- Effect on luminescence (Renilla luciferase [6]; 33 mM compound): No effect

Structure (SMILES): S=C(Nc1ccccc1)Nc1cscn1 [Compound 5]
- Fold decrease autoluminescence ([3]; 10 mM compound, Format A): 115 fold

Structure (SMILES): OC(CS)CC(O)CS (stereo not shown) [Compound 9]
- Fold decrease autoluminescence [4, 10]: 13 fold
- Fold decrease autoluminescence [4, 11]: 2.5 fold
- Fold decrease autoluminescence [4, 21]: 3 fold
- Effect on luminescence (Renilla luciferase [5]; [11]): No effect

Structure (SMILES): CC(N)=S [Compound 3]
- Fold decrease autoluminescence ([3]; 33 mM compound, Format A): 100 fold
- Fold decrease autoluminescence ([4]; 33 mM compound, Format B3 (gelatin, detergent)): 545 fold
- Fold decrease autoluminescence ([4]; 33 mM compound, Format B4 (gelatin, no detergent)): 3.4 fold

Structure (SMILES): C=CCNC(=S)NCCO [Compound 4]
- Fold decrease autoluminescence ([3]; 10 mM compound, Format A): 3 fold
- Fold decrease autoluminescence [4, 10]: 500 fold
- Fold decrease autoluminescence [4, 11]: 3.9 fold
- Effect on luminescence (Renilla luciferase [6]; 10 mM compound): No effect

Structure (SMILES): NC(N)=S [thiourea]
- Fold Decrease in Autoluminescence [1, 7]: 3.4 fold
- Fold Decrease in Autoluminescence [1, 13]: 12 fold
- Fold Decrease in Autoluminescence [1, 8]: 16 fold
- Fold Decrease in Autoluminescence [1, 9]: 40 fold
- Effects on firefly luminescence [2, 7]: No
- Effects on firefly luminescence [2, 13]: No
- Effects on firefly luminescence [2, 8]: No
- Effects on firefly luminescence [2, 9]: Yes, decreases

Structure (SMILES): CC(=O)NC(CS)C(=O)O (stereo not shown) [Compound 11]
- Fold decrease autoluminescence [4, 10]: 2 fold
- Fold decrease autoluminescence [4, 11]: 2.3 fold
- Fold decrease autoluminescence [4, 21]: 3.7 fold
- Effect on luminescence (Renilla luciferase [5]; [10]): No effect
